Numbering of substitutions follows the chain as printed. Entries after “also recorded” stand apart in the source; their conditions may differ. Where two headings read alike, the source gives them in different places.

Assay [1] deals with I. scapularis octβ2R (is-octβ2R) (Ixodes scapularis, UniProt A0ACM8E5E8). Description: cell-based. Type of assay: cell-based. Conditions: for potency (EC50) relative to the other TDAs: order octopamine > tyramine > noradrenaline > dopamine. The method, then:
(§1) The TGFα shedding assay was performed as previously described ([28]). […] The cells were transfected using lipofectamine 2000 with plasmids encoding alkaline phosphatase–tagged TGFα (AP-TGFα) (2.5 ng/mL), is-octβ2Rs (1 ng/mL), and Gαq/s (0.5 ng/mL). After 24 h, the cells were washed with phosphate-buffered saline and resuspended in Hank's balanced salt solution (HBSS) (supplemented with 5 mM HEPES [pH 7.4]). The cells (90 μL/well) were plated in a 96-well plate and incubated with 10 μL of HBSS solution containing various concentrations of compounds for 1 h at 37 °C. Following centrifugation (200 × g, 2 min), 80 μL of the supernatant was transferred to a separate 96-well plate. Subsequently, 80 µL of 2× para-nitrophenyl phosphate (pNPP) buffer (containing 10 mM pNPP in 40 mM Tris–HCl [pH 9.5], 40 mM NaCl, and 10 mM MgCl2) was added to both the supernatant and cell-containing plates. The optical density at 405 nm of both plates was measured before and after a 1 h incubation at room temperature using a microplate reader (SpectraMax iD3, Molecular Devices, San Jose, CA, United States). AP-TGFα release was calculated using the following formulas:
(§2) ΔOD405=OD450(1h)−OD405(0h)AP−TGFαinsupernatant(%)=(ΔOD405Sup/[ΔOD450Sup+ΔOD405Cell])×125AP−TGFαrelease(%)=AP−TGFαinsupernatantunderastimulatedcondition(%)−AP−TGFαinsupernatantunderavehicle−treatedcondition
(§3) where OD405 (0 h) and […] represent the OD405 before and after a 1 h incubation, respectively, and OD405Sup and OD405Cell represent the OD405 of supernatant and cell plates, respectively. For all pharmacological analyses, nonlinear regression curve fitting was performed with a 3-parameter sigmoid model (Hill coefficient = 1) using Prism 8 (GraphPad Software, La Jolla, CA, United States).

For assay [2], the target named is T1, is-octβ2R T60^1.41P mutant (Ixodes scapularis, UniProt A0ACM8E5E8).
T1 sequence (A0ACM8E5E8 1-384 T39P): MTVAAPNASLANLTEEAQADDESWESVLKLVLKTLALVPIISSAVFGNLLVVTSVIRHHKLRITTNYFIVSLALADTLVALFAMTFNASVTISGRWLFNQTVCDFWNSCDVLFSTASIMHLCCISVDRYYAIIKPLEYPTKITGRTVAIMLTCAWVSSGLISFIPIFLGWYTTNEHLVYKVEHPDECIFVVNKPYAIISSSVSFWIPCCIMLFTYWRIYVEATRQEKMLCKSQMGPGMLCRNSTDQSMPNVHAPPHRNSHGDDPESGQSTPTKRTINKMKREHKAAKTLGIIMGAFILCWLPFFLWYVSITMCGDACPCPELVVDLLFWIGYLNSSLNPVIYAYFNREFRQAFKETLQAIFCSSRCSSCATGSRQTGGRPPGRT
The experiment in a line: TGFα shedding assay, amitraz-resistant mutant T60^1.41P. Type of assay: cell-based. Conditions: Table S4. As to the method:
as §1, §2, §3

Assay [3] concerns the target T2, is-octβ2R I61^1.42F mutant (Ixodes scapularis, UniProt A0ACM8E5E8, I40F).
T2 sequence (A0ACM8E5E8 1-384 I40F): T1 sequence (A0ACM8E5E8 1-384 T39P) with P39T, I40F
The experiment in a line: TGFα shedding assay, amitraz-resistant mutant I61^1.42F. Type of assay: cell-based. The following applies: Table S4. The method, then:
as §1, §2, §3

Assay [4] deals with T3, is-octβ2R I62^1.43T mutant (Ixodes scapularis, UniProt A0ACM8E5E8, I41T).
T3 sequence (A0ACM8E5E8 1-384 I41T): T1 sequence (A0ACM8E5E8 1-384 T39P) with P39T, I41T
Description: TGFα shedding assay, amitraz-resistant mutant I62^1.43T. The following applies: Table S4. In kind it is cell-based. As to the method: as §1, §2, §3

The target of assay [5] is T4, is-octβ2R Y67^2.41S mutant (Ixodes scapularis, UniProt A0ACM8E5E8, Y67S).
T4 sequence (A0ACM8E5E8 1-384 Y67S): T1 sequence (A0ACM8E5E8 1-384 T39P) with P39T, Y67S
The experiment in a line: TGFα shedding assay, amitraz-resistant mutant Y67^2.41S. In kind it is cell-based. Conditions: Table S4. The method, then: as §1, §2, §3

Assay [6] addresses T5, is-octβ2R N87^2.61S mutant (Ixodes scapularis, UniProt A0ACM8E5E8, N87S).
T5 sequence (A0ACM8E5E8 1-384 N87S): T1 sequence (A0ACM8E5E8 1-384 T39P) with P39T, N87S
Description: TGFα shedding assay, amitraz-resistant mutant N87^2.61S. Type of assay: cell-based. Conditions: Table S4. The method, then: as §1, §2, §3

Assay [7] deals with T6, is-octβ2R Y215^5.58H mutant (Ixodes scapularis, UniProt A0ACM8E5E8, Y215H).
T6 sequence (A0ACM8E5E8 1-384 Y215H): T1 sequence (A0ACM8E5E8 1-384 T39P) with P39T, Y215H
Description: TGFα shedding assay, amitraz-resistant mutant Y215^5.58H. In kind it is cell-based. The method, then:
as §1, §2, §3

Assay [8] deals with is-octβ2R Y215^5.58H mutant. The assay is described as above. Conditions: versus wild type. In kind it is cell-based, Ixodes scapularis. The method, then:
as §1, §2, §3

The mark [9] stands for this setting: HEK293, 1 h, Table S2, wild type, AP-TGFα release, HEK293 cells, mean ± SEM, n = 3.
Where [10] appears, read: logEC50, Table S2, wild type, HEK293 cells, mean ± SEM, n = 3.
Where [11] appears, read: Table S2, wild type, HEK293 cells, mean ± SEM, n = 3.

In the case of `Cc1ccc(N)c(C)c1` [2′,4′-dimethylaniline], the agonistic activity entry in assay [1] (wild type) was “no agonist activity”.
For orientation: EC50 means the concentration giving half of the maximal effect. A higher EC50 goes with a less potent agent. As a reminder, the Emax is the greatest response seen or fitted, relative to the assay's reference. Consider `CNC[C@H](O)c1ccc(O)c(O)c1` [Adrenaline, adrenaline], for which a half-maximal response in assay [1] (EC50) required 3160 nM. Besides, the Emax in assay [1] (HEK293, 1 h) was determined as 20 ± 2.1%.
For `Cc1ccc(/N=C/N(C)/C=N/c2ccc(C)cc2C)c(C)c1` [Amitraz], the maximum response (Emax) was 17 ± 1% in assay [1] (1 h, Table S4, WT, AP-TGFα release) and 26 ± 0.9% in assay [1] (setting [9]). Also, the EC50 in assay [1] (LogEC50, Table S4, WT) is 31.6 nM; in assay [1] (setting [10]), 126 nM; in assay [2], 31.6 nM; in assay [3], 63.1 nM; in assay [4], 15.8 nM; in assay [5] it was 63.1 nM. The EC50 in assay [6] is 50.1 nM; in assay [7] it was 63.1 nM. For the same compound, in assay [8], the “reduction of maximal response (Emax) by the Y215^5.58H mutation” value was roughly 50%.
In the case of `Cc1ccc(NC=O)c(C)c1` [DMF, N-(2,4-dimethylphenyl)formamide], in assay [1] (setting [11]), the logEC50 result is “no activity”. The agonistic activity result in assay [1] (wild type) is “no agonistic activity”.
Consider `NCCc1ccc(O)c(O)c1` [Dopamine, dopamine], for which the logEC50 result in assay [1] (setting [11]) is “signal observed only at 10-5 M”. Besides, the “potency (EC50) relative to the other TDAs” value in assay [1] (wild type) was “significantly weaker affinities; also recorded: lowest potency”.
Regarding `NC[C@H](O)c1ccc(O)c(O)c1` [Noradrenaline, noradrenaline], the maximum response (Emax) in assay [1] (setting [9]) came to 32 ± 13.1%. In assay [1] (setting [10]), the EC50 was 10000 nM. Further, in assay [1] (wild type), the “potency (EC50) relative to the other TDAs” value is on record as “significantly weaker affinities”.
In turn, `NCCc1ccc(O)cc1` [Tyramine, tyramine] had a concentration giving a half-maximal response (EC50) in assay [1] of 1580 nM. For the same compound, the Emax in assay [1] (HEK293, 1 h) was 25 ± 1.7%. For the same compound, the “potency (EC50) relative to the other TDAs” value in assay [1] (wild type) was “weaker potency”.

Values taken from paper PMC12696353, “Structural insights into endogenous agonist selectivity of aminergic receptors from the octopamine β2 receptor” (PNAS Nexus, 2025).
